Source: ChEMBL document CHEMBL5120835, “Structure-activity relationships of 1,4-bis(arylsulfonamido)-benzene or naphthalene-N,N'-diacetic acids with varying C2-substituents as inhibitors of Keap1-Nrf2 protein-protein interaction” (Eur J Med Chem, 2022)
The source made the active and inactive calls. The rule behind the calls is not given here.

Tests used:
[1] = target: T1, Keap1/Nrf2 (Homo sapiens, UniProt Q14145); experiment: Inhibition of recombinant human Keap1 Kelch domain (321 to 609 residues) expressed in Escherichia coli BL21 (DE3)pLysS cells/Nrf2 (unknown origin) protein-protein interaction using FITC-LDEETGEFL-NH2 as fluorescent substrate preincubated with compound for 30 mins followed by substrate addition and measured after 1 hr by fluorescence polarization assay relative to control
[2] = system: NCM460D; experiment: Upregulation of HMOX1 mRNA expression in human NCM460D cells at 1 to 100 uM measured after 24 hrs by qRT-PCR analysis; assay type: functional, cell-based; details: dose 1-100 µM
[3] = system: NCM460D; experiment: Upregulation of GSTM3 mRNA expression in human NCM460D cells at 1 to 100 uM measured after 24 hrs by qRT-PCR analysis; assay type: functional, cell-based; details: dose 1-100 µM
[4] = Lipophilicity, logD of the compound at pH 7.4; assay type: physicochemical; details: buffer
[5] = system: NCM460D; experiment: Upregulation of NQO1 mRNA expression in human NCM460D cells at 1 to 100 uM measured after 24 hrs by qRT-PCR analysis; assay type: functional, cell-based; details: dose 1-100 µM
[6] = Lipophilicity, logD of the compound at pH 6.5; assay type: physicochemical; details: buffer
[7] = Upregulation of NQO1 mRNA expression in human NCM460D cells assessed as fold change in gene expression at 100 uM measured after 24 hrs by qRT-PCR analysis relative to control; assay type: functional
[8] = target: T1, Keap1/Nrf2; experiment: Inhibition of His-tagged Keap1 kelch domain/Nrf2 (unknown origin) protein-protein interaction using FITC-LDEETGEFL-NH2 peptide as substrate preincubated for 30 mins followed by substrate addition and measured after 1 hr by TR-FRET assay

T1 sequence (Q16236 whole entry, the tested form may be a part): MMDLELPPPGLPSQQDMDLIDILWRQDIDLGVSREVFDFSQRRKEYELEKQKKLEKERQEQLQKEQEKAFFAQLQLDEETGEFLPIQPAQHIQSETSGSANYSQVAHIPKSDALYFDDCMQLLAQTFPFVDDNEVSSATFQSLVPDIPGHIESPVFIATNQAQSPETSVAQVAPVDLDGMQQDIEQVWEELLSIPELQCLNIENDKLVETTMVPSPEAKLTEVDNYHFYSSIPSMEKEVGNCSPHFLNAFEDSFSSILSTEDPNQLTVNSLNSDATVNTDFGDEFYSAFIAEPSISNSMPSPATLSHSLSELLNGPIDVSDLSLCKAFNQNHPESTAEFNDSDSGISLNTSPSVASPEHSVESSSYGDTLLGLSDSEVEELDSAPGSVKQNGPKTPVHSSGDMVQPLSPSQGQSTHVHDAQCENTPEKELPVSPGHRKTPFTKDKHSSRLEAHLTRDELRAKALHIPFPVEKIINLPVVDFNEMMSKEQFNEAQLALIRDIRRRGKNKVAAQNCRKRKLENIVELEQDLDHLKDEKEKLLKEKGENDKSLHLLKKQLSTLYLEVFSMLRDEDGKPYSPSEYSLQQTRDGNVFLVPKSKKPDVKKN
T1 sequence (Q14145 whole entry, the tested form may be a part): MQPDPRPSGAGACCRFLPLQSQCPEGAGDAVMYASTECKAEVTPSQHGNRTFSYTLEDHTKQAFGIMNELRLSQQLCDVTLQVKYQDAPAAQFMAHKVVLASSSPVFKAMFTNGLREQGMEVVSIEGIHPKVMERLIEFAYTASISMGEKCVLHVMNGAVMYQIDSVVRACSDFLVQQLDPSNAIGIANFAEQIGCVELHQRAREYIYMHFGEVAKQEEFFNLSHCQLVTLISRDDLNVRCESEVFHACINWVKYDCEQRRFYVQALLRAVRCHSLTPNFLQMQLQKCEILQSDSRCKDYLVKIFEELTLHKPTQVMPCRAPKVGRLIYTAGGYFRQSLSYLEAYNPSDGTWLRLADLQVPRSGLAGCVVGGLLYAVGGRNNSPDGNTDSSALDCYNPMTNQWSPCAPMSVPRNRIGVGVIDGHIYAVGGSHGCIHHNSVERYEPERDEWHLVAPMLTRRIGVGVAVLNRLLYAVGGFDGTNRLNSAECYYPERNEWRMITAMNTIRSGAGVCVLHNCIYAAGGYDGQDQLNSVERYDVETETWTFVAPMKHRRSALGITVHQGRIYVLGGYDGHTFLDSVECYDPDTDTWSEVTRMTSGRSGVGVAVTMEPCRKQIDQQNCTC

SMILES	IC50 [1] [nM]	also measured
COc1ccc(S(=O)(=O)N(CC(=O)O)c2ccc(N(CC(=O)O)S(=O)(=O)c3ccc(OC)cc3)c(OCc3cccc4ccccc34)c2)cc1	790	–
Cc1cccc(S(=O)(=O)N(CC(=O)O)c2ccc(N(CC(=O)O)S(=O)(=O)c3cccc(C)c3)c(OCc3ccccc3)c2)c1	1000	–
COc1ccc(S(=O)(=O)N(CC(=O)O)c2ccc(N(CC(=O)O)S(=O)(=O)c3ccc(OC)cc3)c(N(C)Cc3ccccc3)c2)cc1	6170	–
Cc1cc(C)c(S(=O)(=O)N(CC(=O)O)c2ccc(N(CC(=O)O)S(=O)(=O)c3c(C)cc(C)cc3C)c(OCc3ccc(F)cc3)c2)c(C)c1	3730	–
Cc1ccc(S(=O)(=O)N(CC(=O)O)c2cc(OCc3ccc(F)cc3)c(N(CC(=O)O)S(=O)(=O)c3ccc(C)cc3)c3ccccc23)cc1	65	Activity [2]: Active; Activity [3]: Active; logD ([4]; read-out: logD): 0.33; Activity [5]: Active; logD [6]: 1.94; fold change (FC) [7]: 15; IC50 [8]: 14.2 nM
COc1ccc(S(=O)(=O)N(CC(=O)O)c2ccc(N(CC(=O)O)S(=O)(=O)c3ccc(OC)cc3)c(OCCCc3ccccc3)c2)cc1	950	–
COc1ccc(S(=O)(=O)N(CC(=O)O)c2ccc(N(CC(=O)O)S(=O)(=O)c3ccc(OC)cc3)c(OCc3cccnc3)c2)cc1	760	–
O=C(O)CN(c1ccc(N(CC(=O)O)S(=O)(=O)c2ccc(F)cc2)c(OCc2ccccc2)c1)S(=O)(=O)c1ccc(F)cc1	2410	–
COc1ccc(S(=O)(=O)N(CC(=O)O)c2ccc(N(CC(=O)O)S(=O)(=O)c3ccc(OC)cc3)c(OCc3ccc(F)cc3)c2)cc1	910	–
Cc1ccc(S(=O)(=O)N(Cc2nnn[nH]2)c2ccc(N(Cc3nnn[nH]3)S(=O)(=O)c3ccc(C)cc3)c(OCc3ccc(F)cc3)c2)cc1	3920	–
O=C(O)CN(c1ccc(N(CC(=O)O)S(=O)(=O)c2ccc(-c3ccccc3)cc2)c(OCc2ccccc2)c1)S(=O)(=O)c1ccc(-c2ccccc2)cc1	750	–
Cc1ccc(S(=O)(=O)N(CC(=O)O)c2ccc(N(CC(=O)O)S(=O)(=O)c3ccc(C)cc3)c(OCc3ccc(-c4ccccc4)cc3)c2)cc1	440	–
COc1ccc(COc2cc(N(CC(=O)O)S(=O)(=O)c3ccc(OC)cc3)ccc2N(CC(=O)O)S(=O)(=O)c2ccc(OC)cc2)cc1	770	–
COc1ccc(S(=O)(=O)N(CC(=O)O)c2ccc(N(CC(=O)O)S(=O)(=O)c3ccc(OC)cc3)c(OCc3ccc(C)cc3)c2)cc1	620	–
COc1ccc(S(=O)(=O)N(CC(=O)O)c2ccc(N(CC(=O)O)S(=O)(=O)c3ccc(OC)cc3)c(OCCc3ccccc3)c2)cc1	1020	–
COc1ccc(S(=O)(=O)N(CC(=O)O)c2ccc(N(CC(=O)O)S(=O)(=O)c3ccc(OC)cc3)c3ccccc23)cc1	–	logD [4]: -2.93; logD [6]: -1.38
O=C(O)CN(c1ccc(N(CC(=O)O)S(=O)(=O)c2ccc(C(F)(F)F)cc2)c(OCc2ccccc2)c1)S(=O)(=O)c1ccc(C(F)(F)F)cc1	1760	–
O=C(O)CN(c1ccc(N(CC(=O)O)S(=O)(=O)c2ccc(Br)cc2)c(OCc2ccccc2)c1)S(=O)(=O)c1ccc(Br)cc1	590	–
Cc1ccc(S(=O)(=O)N(c2ccc(N([C@@H](C)C(=O)O)S(=O)(=O)c3ccc(C)cc3)c(OCc3ccc(F)cc3)c2)[C@@H](C)C(=O)O)cc1	1270	–
Cc1ccc(S(=O)(=O)N(CC(=O)O)c2ccc(N(CC(=O)O)S(=O)(=O)c3ccc(C)cc3)c(OCc3ccc(F)cc3)c2)cc1	450	–
COc1ccc(S(=O)(=O)N(CC(=O)O)c2ccc(N(CC(=O)O)S(=O)(=O)c3ccc(OC)cc3)c(OCc3ccc(Oc4ccccc4)cc3)c2)cc1	830	–
COc1ccc(S(=O)(=O)N(CC(=O)O)c2ccc(N(CC(=O)O)S(=O)(=O)c3ccc(OC)cc3)c(Oc3ccc4ccccc4c3)c2)cc1	890	–
Cc1ccc(S(=O)(=O)N(CC(=O)O)c2ccc(N(CC(=O)O)S(=O)(=O)c3ccc(C)cc3)c(OCc3ccccc3)c2)cc1	450	–
COc1ccc(S(=O)(=O)N(CC(=O)O)c2ccc(N(CC(=O)O)S(=O)(=O)c3ccc(OC)cc3)c(-c3ccccc3)c2)cc1	3470	–
COc1ccc(S(=O)(=O)N(CC(=O)O)c2ccc(N(CC(=O)O)S(=O)(=O)c3ccc(OC)cc3)c(COc3ccccc3)c2)cc1	2620	–
COc1ccc(S(=O)(=O)N(CC(=O)O)c2ccc(N(CC(=O)O)S(=O)(=O)c3ccc(OC)cc3)c(OCc3ccc(-c4ccccc4)cc3)c2)cc1	390	–
COc1ccc(S(=O)(=O)N(CC(=O)O)c2ccc(N(CC(=O)O)S(=O)(=O)c3ccc(OC)cc3)c(OCc3ccc4ccccc4c3)c2)cc1	480	–
Cc1ccc(S(=O)(=O)N(CC(=O)O)c2ccc(N(CC(=O)O)S(=O)(=O)c3ccc(C)cc3)c(OCc3ccc4ccccc4c3)c2)cc1	380	–
COc1ccc(S(=O)(=O)N(CC(=O)O)c2ccc(N(CC(=O)O)S(=O)(=O)c3ccc(OC)cc3)c(Oc3ccc(-c4ccccc4)cc3)c2)cc1	1190	–
